Experimental data as given in patent US20250101062A1, “ANTIMICROBIAL PEPTIDES” (Board of Regents of the University of Nebraska, priority 2023, published 2025).
In brackets after ≈: the same amount, converted by molar mass. Like-named read-outs stand apart in the source and are kept apart here. Where a SMILES comes first, the peptide text is derived from it. Where no end group is shown, it is not given here.

What was measured:
P. aeruginosa E411-17 [1] = assay: microbe, parasite or virus in culture; type: cell-based, Pseudomonas aeruginosa; conditions: for MIC: read-out: Antimicrobial activity (MIC)
Outline: (§1)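 Broth microdilution with twofold peptide dilutions, using exponential-phase bacteria at about 10^5 CFU/mL in MHB, incubated overnight at 37 °C and read at OD600. MIC, reported as a range, is the peptide concentration with no growth. Some tests used diluted MHB/TSB/LB, adjusted pH, or added NaCl or human serum.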

A. baumannii B28-16 = type: cell-based, Acinetobacter baumannii
Outline: (§2)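 Peptides twofold serially diluted against exponential-phase resistant clinical isolates at ~10^5 CFU/mL in MHB (also diluted MHB, TSB or LB in one protocol), CLSI-based broth microdilution. Incubated overnight at 37° C., OD 600 nm read; MIC taken as lowest concentration without growth, reported as ranges.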

S. epidermidis 1457 = assay: microbe, parasite or virus in culture; type: cell-based, Staphylococcus epidermidis
Outline: as §2

E. coli E416-17 = type: cell-based, Escherichia coli
Experimental: (§3) Peptide activity against bacteria were tested using the CLSI standard procedure with minor modifications (Clinical and Laboratory Standards Institute (2018) Performance standards for antimicrobial susceptibility testing, 9th ed.; Mishra, et al. (2019) Proc. Natl. Acad. Sci., 116(27):13517-13522). In brief, a peptide concentration gradient with twofold dilution was made in the 96-well polystyrene microplate at 10 μL per well. Bacteria were grown to the exponential phase (i.e., optical density at 600 nm≈0.5), diluted to ˜10^5 CFU/mL in MHB, and partitioned into the 96-well microplate at 90 μL per well. The microplates were incubated at 37° C. overnight and read on a ChroMate® 4300 Microplate Reader at 600 nm (GMI, Ramsey, MN). The peptide concentration in the wells without bacterial growth is the minimal inhibitory concentration (MIC). As the convention, MIC values were represented as ranges.

human red blood cells = assay: Hemolytic assay; type: cell-based
Experimental: The hemolytic effects of peptides were evaluated using a method with minor modifications (Lakshmaiah Narayana, et al. (2021) ACS Infect. Dis., 7:1795-1808). Human red blood cells (hRBCs, UNMC Blood Bank) were washed (3×) with blood bank saline (isotonic solution 0.90% w/v, Fisher). Cells were diluted to 2% using the saline solution, and aliquots of 90 μL were added to a 96-well polystyrene microplate containing 10 μL of serially diluted peptide solutions. After incubation at 37° C. for 1 hour, plates were centrifuged at 500 g for 5 minutes. Aliquots of the supernatant were transferred to a 96-well microplate. The amount of hemoglobin released was measured at 545 nm by using a ChroMate™ microplate reader. […] HC50 is defined as the concentration of the peptide that caused 50% lysis.
The hemolytic effects of peptides were evaluated (Narayana, et al. (2020) Proc. Natl. Acad. Sci., 117(32):19446-9454). In brief, human red blood cells (UNMC Blood Bank) were washed (3×) and diluted to 2% using the saline solution. Aliquots of 90 μL were mixed with 10 μL of serially diluted peptide solutions. After incubation at 37° C. for 1 hour, plates were centrifuged at 500 g for 5 minutes and aliquots of the supernatant were transferred to a new 96-well microplate to measure the amount of hemoglobin released at 545 nm (relative to 1% Triton® X-100) using a ChroMate® Microplate Reader.

K. pneumoniae E406-17 = type: cell-based, Klebsiella pneumoniae
Experimental: The following resistant bacterial clinical strains were used in this study: S. aureus USA300 LAC, S. epidermidis 1457, E. coli E423-17, P. aeruginosa E411-17, K. pneumoniae E406-17, and A. baumannii B28-16. While the S. aureus USA300 strain is methicillin-resistant, most of the Gram-negative bacteria contain extended-spectrum beta-lactamase and are resistant to beta-lactam antibiotics. Peptide activity against bacteria was tested using an established lab protocol (Mishra, et al. (2017) Acta Biomater., 49:316-328). In brief, a peptide concentration gradient with twofold dilution was made in the 96-well polystyrene microplate at 10 μL per well. Bacteria were grown to the exponential phase (i.e., optical density at 600 nm≈0.5), diluted to ˜10^5 CFU/mL in different percentages of MHB, TSB, or LB, and partitioned into the 96-well microplate at 90 μL per well. […] They were diluted with autoclaved distilled water to obtain different percentages. The microplates were incubated at 37° C. overnight and read on a ChroMate™ 4300 microplate reader at 600 nm (GMI, Ramsey, MN). The peptide concentration in the wells without bacterial growth is the MIC. As is the convention, MIC values were represented as ranges.
as §3

S. aureus USA300 LAC = assay: microbe, parasite or virus in culture; type: cell-based, Staphylococcus aureus; conditions: for MIC: read-out: Antimicrobial activity (MIC)
Outline: as §1

trypsin = conditions: peptide:protease 40:1, 37° C., 1 hour
Experimental: A solution of peptide/protease (40:1 molar ratio) was made in phosphate-buffered saline (PBS; pH 7.1, Gibco, NY) and incubated at 37° C. for 1 hour. As controls, peptides without proteases were also incubated in the same manner. Then, aliquots of 10 μL were transferred to a 96-well polystyrene microplate and mixed with the exponential-phase MRSA USA300 culture as performed in the antibacterial activity assays above.

chymotrypsin = molecular target: T1, chymotrypsin (Bos taurus, UniProt P00766); type: in vitro ADME, mammalian
T1 construct: purchased Thermo Fisher Scientific

pepsin = molecular target: T2, pepsin (Sus scrofa, UniProt P00791); type: in vitro ADME, mammalian
T2 construct: purchased Thermo Fisher Scientific
T2 sequence (P00791 60-385): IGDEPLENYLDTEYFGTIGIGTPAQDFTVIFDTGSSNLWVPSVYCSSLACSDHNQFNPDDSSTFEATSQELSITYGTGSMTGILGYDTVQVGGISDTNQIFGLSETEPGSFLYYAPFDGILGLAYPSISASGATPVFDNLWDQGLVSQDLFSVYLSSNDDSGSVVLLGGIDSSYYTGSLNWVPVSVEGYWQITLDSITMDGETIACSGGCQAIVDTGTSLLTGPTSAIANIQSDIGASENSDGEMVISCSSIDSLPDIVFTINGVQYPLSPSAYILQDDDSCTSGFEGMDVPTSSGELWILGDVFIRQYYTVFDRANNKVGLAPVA

P. aeruginosa E411-17 [2] = assay: Killing kinetics; type: cell-based, Pseudomonas aeruginosa; conditions: 4×MIC
Experimental: For bacterial killing kinetics study, MRSA USA300 and P. aeruginosa E411-17 was grown to the exponential phase (OD600˜0.3) in MHB. The culture was diluted to OD600 0.001 (˜10^5 CFU/mL). One milliliter of bacterial suspension was then mixed with the peptide, colistin or daptomycin at 4×MIC and incubated at 37° C. After 15, 30, 60, 90, and 120 minutes incubation, 50 μL was taken and serially diluted with 1×PBS. Then, 50 μL of the diluted suspension was plated on Mannitol Salt Agar (MRSA USA300) or Cetrimide Agar (P. aeruginosa E411-17) plates (NEOGEN, MI). The plates were incubated overnight at 37° C. for bacterial CFU count the next day.

E. coli E423-17 [3] = assay: Membrane permeabilization (propidium iodide); type: cell-based, Escherichia coli; conditions: Example 1, 1×MIC
E. coli E423-17 [4] = type: cell-based, Escherichia coli
E. coli E423-17 [5] = type: cell-based, Escherichia coli; conditions: DMEM

Molecule | Minimal inhibitory concentration (MIC) P. aeruginosa E411-17 (P. aeruginosa E411-17 [1]) [µM] | Minimal inhibitory concentration (MIC) A. baumannii B28-16 (A. baumannii B28-16) [µM] | Minimal inhibitory concentration (MIC) S. epidermidis 1457 (S. epidermidis 1457) [µM] | Minimal inhibitory concentration (MIC) E. coli E416-17 (E. coli E416-17) [µM] | HC10-based therapeutic index (HC10/MIC) (human red blood cells) | Hemolysis (HC10), 10% hemolytic concentration (human red blood cells) [µM] | Hemolysis (HC50), 50% hemolytic concentration (human red blood cells) [µM] | Minimal inhibitory concentration (MIC) K. pneumoniae E406-17 (K. pneumoniae E406-17) [µM] | Minimal inhibitory concentration (MIC) S. aureus USA300 (S. aureus USA300 LAC) [µM] | also measured
N=C(N)NCCC[C@H](NC(=O)[C@@H](N)CCCCN)C(=O)N[C@@H](Cc1c[nH]c2ccccc12)C(=O)N[C@@H](Cc1ccc(-c2ccccc2)cc1)C(=O)N[C@@H](CCC(N)=O)C(=O)N[C@@H](Cc1c[nH]c2ccccc12)C(=O)N[C@@H](Cc1ccc(-c2ccccc2)cc1)C(=O)N[C@@H](CCCCN)C(N)=O [Bip-KR-8+] (HELM PEPTIDE1{K.R.W.[O=C([C@H](Cc1ccc(-c2ccccc2)cc1)N[*:1])[*:2]].Q.W.[O=C([C@H](Cc1ccc(-c2ccccc2)cc1)N[*:1])[*:2]].K.[am]}$$$$V2.0) | 16 to 32 | 32 (≈ 44.1 µg/mL) | 4 (≈ 5.51 µg/mL) | 16 (≈ 22 µg/mL) | ~1 | 15 | > 200 | >32 | 4 (≈ 5.51 µg/mL) | 
CC(C)C[C@H](N)C(=O)N[C@@H](Cc1c[nH]c2ccccc12)C(=O)NCC(=O)N[C@@H](CCCNC(=N)N)C(=O)N[C@@H](Cc1ccccc1)C(=O)N[C@@H](Cc1ccccc1)C(=O)N[C@@H](CCCNC(=N)N)C(=O)N[C@@H](CCCCN)C(=O)N[C@@H](Cc1ccc(-c2ccccc2)cc1)C(=O)N[C@@H](CCCCN)C(N)=O [Bip-LL-10+] (HELM PEPTIDE1{L.W.G.R.F.F.R.K.[O=C([C@H](Cc1ccc(-c2ccccc2)cc1)N[*:1])[*:2]].K.[am]}$$$$V2.0) | 4 (≈ 5.84 µg/mL) | 8 (≈ 11.7 µg/mL) | 4 (≈ 5.84 µg/mL) | 4 (≈ 5.84 µg/mL) | 25 | 100 | > 200 | >32 | 2 to 4 | 
CC(C)C[C@H](NC(=O)[C@H](Cc1ccccc1)NC(=O)[C@H](CCCNC(=N)N)NC(=O)[C@H](CCCCN)NC(=O)[C@H](Cc1ccc(-c2ccccc2)cc1)NC(=O)[C@@H](N)CCCNC(=N)N)C(=O)N[C@@H](CCCNC(=N)N)C(=O)N[C@@H](CC(N)=O)C(=O)N[C@@H](Cc1ccc(-c2ccccc2)cc1)C(=O)N[C@H](C(N)=O)C(C)C [Bip-RIK-10+] (HELM PEPTIDE1{R.[O=C([C@H](Cc1ccc(-c2ccccc2)cc1)N[*:1])[*:2]].K.R.F.L.R.N.[O=C([C@H](Cc1ccc(-c2ccccc2)cc1)N[*:1])[*:2]].V.[am]}$$$$V2.0) | 2 (≈ 3.07 µg/mL) | 2 to 4 | 2 (≈ 3.07 µg/mL) | 2 (≈ 3.07 µg/mL) | <4 |  | ~30 | 2 to 4 | 1 (≈ 1.53 µg/mL) | Hemolysis (HC10), 10% hemolytic concentration (human red blood cells; red cells of human): < 8 µM
N=C(N)NCCC[C@@H](N)C(=O)N[C@H](CCCNC(=N)N)C(=O)N[C@H](Cc1c[nH]c2ccccc12)C(=O)N[C@H](Cc1c[nH]c2ccccc12)C(=O)N[C@H](CCCNC(=N)N)C(=O)N[C@H](Cc1c[nH]c2ccccc12)C(=O)N[C@H](Cc1c[nH]c2ccccc12)C(=O)N[C@H](CCCNC(=N)N)C(N)=O [LL-37mini (D-form)] (HELM PEPTIDE1{[dR].[dR].[dW].[dW].[dR].[dW].[dW].[dR].[am]}$$$$V2.0) |  |  |  |  |  |  |  |  |  | activity after protease incubation (trypsin): remained active; activity after protease incubation (chymotrypsin): remained active; activity after protease incubation (pepsin): retained antibacterial activity
Colistin [reference compound] |  |  |  |  |  |  |  |  |  | Antimicrobial activity (MIC) (P. aeruginosa E411-17 [1]; Human serum 5%): 1 to 2 µM; MIC (P. aeruginosa E411-17 [1]; Human serum 10%): 2 µM; Antimicrobial activity (MIC) P. aeruginosa E411-17 (P. aeruginosa E411-17 [1]; MHB, Table 8): 1 to 2 µM; MIC (P. aeruginosa E411-17 [1]; NaCl (150 mM)): 2 µM; MIC (P. aeruginosa E411-17 [1]; pH 6.21): 2 µM; Antimicrobial activity (MIC) (P. aeruginosa E411-17 [1]; pH 7.22): 1 to 2 µM; Antimicrobial activity (MIC) (P. aeruginosa E411-17 [1]; pH 8.13): 1 to 2 µM; Antimicrobial activity (MIC) A. baumannii B28-16 (A. baumannii B28-16; MHB, Table 8): 2 µM; time to kill (P. aeruginosa E411-17 [2]): 30 min; membrane permeabilization (E. coli E423-17 [3]): powerful membrane permeator; Antimicrobial activity (MIC) E. coli E423-17 (E. coli E423-17 [4]; MHB, Table 8): 1 to 2 µM; hemolysis (human red blood cells; at 400 μM): did not lyse human red blood cells even at 400 μM; MIC (S. aureus USA300 LAC; Human serum 5%): >8 µM; MIC (S. aureus USA300 LAC; Human serum 10%): >8 µM; MIC (S. aureus USA300 LAC; NaCl (150 mM)): >8 µM; MIC (S. aureus USA300 LAC; pH 6.21): >8 µM; MIC (S. aureus USA300 LAC; pH 7.22): >8 µM; MIC (S. aureus USA300 LAC; pH 8.13): >8 µM
RIKDFLRNLV-NH2 (C-terminus assumed) [RIK-10] |  |  |  |  |  |  |  |  |  | Antimicrobial activity (MIC) (E. coli E423-17 [5]): 8 µM; Antimicrobial activity (MIC) (E. coli E423-17 [4]; E423-17): 32 to 64 µM; Antimicrobial activity (MIC) (E. coli E423-17 [4]; MHB 100%): 16 µM; Antimicrobial activity (MIC) (S. aureus USA300 LAC; MHB 12.5%): active
